Source: US20220395472A1 (Dermavant Sciences GmbH, priority 2021, published 2022)
Like-named read-outs stand apart in the source and are kept apart here.

Columns and labels:
[1] = tested on: adults with plaque psoriasis; experiment: Long-term extension study (PSOARING 3): % BSA affected; assay type: in vivo, human
Method: The % BSA affected is an estimate of the percentage of total involved skin with psoriasis. For the purpose of clinical estimation, the total palmar surface of the subject's palm and digits was assumed to be approximately equivalent to 1% BSA. The % BSA affected by psoriasis was evaluated (from 0% to 100%). Details on calculation of approximate % BSA involvement in each subject (total and individual) can be found in Appendix 2 of the protocol. Percent BSA is a static assessment made without reference to previous scores.
At Screening, Baseline, and for all efficacy assessments, lesions on the subject's scalp, palms, fingernails, toenails, and soles were not included in the calculation of % BSA affected as these areas were excluded from the efficacy analyses.

[2] = tested on: adults with plaque psoriasis; experiment: Long-term extension study (PSOARING 3): Dermatology Life Quality Index (DLQI); assay type: in vivo, human; parameters: key to DLQI Total Score, Observed, Mean / DLQI Total Score, Observed, Median: DLQI total score 0–30; higher = greater quality-of-life impairment
Excerpt: Subjects completed the DLQI questionnaire. The DLQI is a simple, validated, dermatology specific, 10 question questionnaire to assess the impact of the disease on a subject's quality of life. The DLQI is an important outcome measure in dermatology clinical trials and is the most frequently used instrument in randomized, controlled dermatology trials. The DLQI can be analyzed as a total score (where a higher score indicates greater impairment in quality of life) and can also be scored for the following dimensions: Symptoms and Feelings (Items 1 and 2), Daily Activities (Items 3 and 4), Leisure (Items 5 and 6), Work and School (Item 7), Personal Relationships (Items 8 and 9), and Treatment (Item 10).
The DLQI is a 10 item subject reported outcome, 6 domain measure that assessed the extent to which the skin condition had affected the subject's quality of life over the past week. The total score (0 to 30) is the sum of 10 questions with each ranging from 0 to 3. The DLQI was assessed at 4 week intervals. If one question was left unanswered, this was scored as 0 and the scores were summed and expressed as usual out of a maximum of 30. If ≥2 questions were left unanswered, the total DLQI score was considered missing.
DLQI total score and sub scores on DLQI domains and their changes from baseline as well as percent change from baseline values were summarized descriptively. Additional details of the analysis of the DLQI are provided in the SAP.

[3] = tested on: adults with plaque psoriasis; experiment: Long-term extension study (PSOARING 3): patient-reported and investigator-assessed Local Tolerability Scale; assay type: in vivo, human; conditions: all anatomic regions incl. sensitive areas; 40 weeks
Method: Tolerability is defined as the local tolerability using a patient-reported 5-point scale for burning/stinging and itching, and an investigator-assessed 5-point scale for dryness, erythema, and peeling.
Tolerability was assessed subjectively via subject and objectively via Investigator throughout the 40 weeks of the study. The patient-reported local tolerability scale utilized for self-reported tolerability assessment is shown in Table 20, while the investigator-assessed local tolerability scale utilized is shown in Table 21.

[4] = Maximal use study with serial PK sampling: plasma concentrations; assay type: in vivo, human; conditions: between Days 1 and 29
Excerpt: (FIG. 2). This decline is further supported by serial PK data collected from previous clinical studies over 28 days of dosing and over 21 days of dosing.

[5] = Preclinical repeat-dose systemic exposure; assay type: in vivo
Excerpt: The reason for the decrease in plasma concentrations over time is unknown. Without wishing to be bound by theory, as the skin heals, there may be less penetration of the drug through the stratum corneum and into the systemic circulation since the barrier is restored.

[6] = tested on: adults with mild to severe plaque psoriasis; experiment: PSOARING 1 & 2 12-week pivotal phase 3 trials; assay type: in vivo, human; conditions: Week 12
Method: All secondary endpoints were met, with statistical significance. […] Here, we present further analyses of the DLQI results, including an evaluation of correlations between the DLQI and clinical efficacy as assessed by PGA and Psoriasis Area and Severity Index (PASI) scores in PSOARING 1 & 2.
The DLQI is a 10-item scale where each item rates impact on quality of life (QoL) on a 4-point scale from 0 (not at all) to 3 (very much); lower scores indicate higher QoL. Efficacy was evaluated using PGA and PASI. Spearman rank correlations were used to evaluate correlations between changes from baseline in efficacy and changes from baseline in QoL at Week 12. Analyses used observed cases and were based on the intention-to-treat population.

[7] = tested on: adult and adolescent subjects with AD; conditions: cited from earlier work
[8] = Week 16, OC, Tapinarof (Pivotal) group
[9] = Week 16, OC, Vehicle (Pivotal) group
[10] = Week 40, OC, Tapinarof (Pivotal) group
[11] = Week 40, OC, Vehicle (Pivotal) group
[12] = Week 16 OC, Tapinarof (Pivotal)
[13] = Week 40 OC, Tapinarof (Pivotal)

For `CC(C)c1c(O)cc(/C=C/c2ccccc2)cc1O` [Tapinarof, 3,5-Dihydroxy-4-isopropyl-trans-stilbene], the “mean % BSA affected” value ([1]; Week 16, LOCF, Tapinarof (Pivotal) group) was 2.54%, the “mean % BSA affected” value ([1]; Week 16, LOCF, Vehicle (Pivotal) group) was 3.36% and the “mean % BSA affected” value [1, 8] was 1.97%. For the same compound, the “mean % BSA affected” value [1, 9] was 2.89%, the “mean % BSA affected” value ([1]; Week 16 LOCF, Overall) was 2.82% and the “mean % BSA affected” value ([1]; Week 16 OC, Overall) was 2.28%. The “mean % BSA affected” value ([1]; Week 40, LOCF, Tapinarof (Pivotal) group) was 2.44%, the “mean % BSA affected” value ([1]; Week 40, LOCF, Vehicle (Pivotal) group) was 2.99% and the “mean % BSA affected” value [1, 10] was 1.75%. For the same compound, the “mean % BSA affected” value [1, 11] was 2.07%, the “mean % BSA affected” value ([1]; Week 40 LOCF, Overall) was 2.63% and the “mean % BSA affected” value ([1]; Week 40 OC, Overall) was 1.85%. The “DLQI Total Score, Observed, Mean” value ([2]; Baseline, Overall) was 4.3, the “DLQI Total Score, Observed, Median” value ([2]; Baseline, Overall) was 2.0 and the “DLQI Total Score, Observed, Mean” value ([2]; Baseline, Tapinarof (Pivotal)) was 3.3. The “DLQI Total Score, Observed, Median” value ([2]; Baseline, Tapinarof (Pivotal)) was 2.0, the “mean (SD) DLQI total score” value [2, 8] was 2.0 (3.23) and the “mean (SD) DLQI total score” value [2, 9] was 3.0 (5.19). For the same compound, the “DLQI Total Score, CFBL, Mean” value ([2]; Week 16 OC, Overall) was −1.7, the “DLQI Total Score, CFBL, Median” value ([2]; Week 16 OC, Overall) was −1.0 and the “DLQI Total Score, Observed, Mean” value ([2]; Week 16 OC, Overall) was 2.3. The “DLQI Total Score, Observed, Median” value ([2]; Week 16 OC, Overall) was 1.0, the “DLQI Total Score, Percent CFBL, Mean” value ([2]; Week 16 OC, Overall) was −30.7% and the “DLQI Total Score, Percent CFBL, Median” value ([2]; Week 16 OC, Overall) was −60.0%. The “mean (SD) DLQI total score” value ([2]; Week 16 OC, Overall) was 2.3 (4.02), the “DLQI Total Score, CFBL, Mean” value [2, 12] was −1.0 and the “DLQI Total Score, CFBL, Median” value [2, 12] was 0.0. For the same compound, the “DLQI Total Score, Observed, Mean” value [2, 12] was 2.0, the “DLQI Total Score, Observed, Median” value [2, 12] was 1.0 and the “DLQI Total Score, Percent CFBL, Mean” value [2, 12] was −21.3%. For the same compound, the “DLQI Total Score, Percent CFBL, Median” value [2, 12] was −50.0%, the “DLQI Total Score, CFBL, Mean” value ([2]; Week 16 OC, Vehicle (Pivotal)) was −3.1 and the “DLQI Total Score, CFBL, Median” value ([2]; Week 16 OC, Vehicle (Pivotal)) was −3.0. For the same compound, the “DLQI Total Score, Observed, Mean” value ([2]; Week 16 OC, Vehicle (Pivotal)) was 3.0, the “DLQI Total Score, Observed, Median” value ([2]; Week 16 OC, Vehicle (Pivotal)) was 1.0 and the “DLQI Total Score, Percent CFBL, Mean” value ([2]; Week 16 OC, Vehicle (Pivotal)) was −45.9%. For the same compound, the “DLQI Total Score, Percent CFBL, Median” value ([2]; Week 16 OC, Vehicle (Pivotal)) was −73.0%, the “mean (SD) DLQI total score” value [2, 10] was 1.6 (2.36) and the “mean (SD) DLQI total score” value [2, 11] was 2.0 (4.23). The “DLQI Total Score, CFBL, Mean” value ([2]; Week 40 OC, Overall) was −2.0, the “DLQI Total Score, CFBL, Median” value ([2]; Week 40 OC, Overall) was −1.0 and the “DLQI Total Score, Observed, Mean” value ([2]; Week 40 OC, Overall) was 1.7. The “DLQI Total Score, Observed, Median” value ([2]; Week 40 OC, Overall) was 1.0, the “DLQI Total Score, Percent CFBL, Mean” value ([2]; Week 40 OC, Overall) was −41.6% and the “DLQI Total Score, Percent CFBL, Median” value ([2]; Week 40 OC, Overall) was −72.1%. For the same compound, the “DLQI Total Score, CFBL, Mean” value [2, 13] was −1.1, the “DLQI Total Score, CFBL, Median” value [2, 13] was 0.0 and the “DLQI Total Score, Observed, Mean” value [2, 13] was 1.6. The “DLQI Total Score, Observed, Median” value [2, 13] was 1.0, the “DLQI Total Score, Percent CFBL, Mean” value [2, 13] was −25.0% and the “DLQI Total Score, Percent CFBL, Median” value [2, 13] was −61.3%. For the same compound, the “DLQI Total Score, CFBL, Mean” value ([2]; Week 40 OC, Vehicle (Pivotal)) was −3.9, the “DLQI Total Score, CFBL, Median” value ([2]; Week 40 OC, Vehicle (Pivotal)) was −3.0 and the “DLQI Total Score, Observed, Mean” value ([2]; Week 40 OC, Vehicle (Pivotal)) was 2.0. The “DLQI Total Score, Observed, Median” value ([2]; Week 40 OC, Vehicle (Pivotal)) was 0.0, the “DLQI Total Score, Percent CFBL, Mean” value ([2]; Week 40 OC, Vehicle (Pivotal)) was −69.2% and the “DLQI Total Score, Percent CFBL, Median” value ([2]; Week 40 OC, Vehicle (Pivotal)) was −88.9%. The “local tolerability (patient and investigator assessments)” value [3] was “well-tolerated”, the “decline in plasma concentrations” value [4] was 10 fold and the “systemic exposures with repeat dosing compared to single doses” value ([5]; minipigs) was “no changes in systemic exposures”. The “systemic exposures with repeat dosing compared to single doses” value ([5]; rats) was “no changes in systemic exposures”, the “PGA response (PGA 0 or 1 and ≥2-grade improvement from baseline)” value ([6]; PSOARING 1) was 35.4% and the “mean change in DLQI from baseline” value ([6]; PSOARING 1) was roughly 5.0. The “patients who achieved a DLQI of 0 or 1” value ([6]; PSOARING 1) was 47.4%, the “PGA response (PGA 0 or 1 and ≥2-grade improvement from baseline)” value ([6]; PSOARING 2) was 40.2% and the “mean change in DLQI from baseline” value ([6]; PSOARING 2) was roughly 4.7. The “patients who achieved a DLQI of 0 or 1” value ([6]; PSOARING 2) was 44.9%, the “reported TEAEs” value ([7]; 1% BID arm) was 70% and the “proportion subjects with ≥75% improvement in EASI” value ([7]; 1% BID) was 60%. The “Treatment success for IGA (clear or almost clear with minimum 2-point improvement)” value ([7]; 1% QD arm, Week 8) was 49%, the “proportion subjects with ≥75% improvement in EASI” value ([7]; 1% QD arm, Week 8) was 57% and the “Treatment success for IGA (clear or almost clear with minimum 2-point improvement)” value ([7]; 1% QD arm, Week 12) was 46%. The “proportion subjects with ≥75% improvement in EASI” value ([7]; 1% QD arm, Week 12) was 57%, the “reported TEAEs” value ([7]; 1% QD arm) was 54% and the “proportion subjects with ≥75% improvement in EASI” value ([7]; 1% QD) was 51%.
